Experimental data: patent US10570179B2, “Substituted urea depsipeptide analogs as activators of the CLPP endopeptidase” (priority 2016, dated 2020)
Numbered stars: 1 amine (or outer) side, 2 acyl side, 3 side chain; on linkers, the order of the positions; unused ones are H or OH. Bridge positions count the residues as written; N and C are the ends. Square brackets hold non-standard residues; d marks the D form. Peptide text beside a SMILES is read from it. * marks the point of attachment. X5 = O=C([C@@H]1C[C@@H](OP(=O)(O)O)CN1[*:1])[*:2]; Piperazine(2S-CO,4-Me) = CN1CCN[C@H](C(=O)O)C1; Phe(3,5-Me2) = Cc1cc(C)cc(C[C@H](N)C(=O)O)c1; Phe(3-Me) = Cc1cccc(C[C@H](N)C(=O)O)c1; NH(4-Cl-2-F-phenyl) = Fc1cc(Cl)ccc1N*; Pro(4R-Me) = C[C@H]1CN[C@H](C(=O)O)C1; Hyp = O=C(O)[C@@H]1C[C@@H](O)CN1; NH(4-Et-phenyl) = CCc1ccc(N*)cc1; NH(4-Me-phenyl) = Cc1ccc(N*)cc1; aThr = C[C@H](O)[C@H](N)C(=O)O; Pip = O=C(O)[C@@H]1CCCCN1; X3 = c1cc2c(cc1N*)OCCO2; CO = O=C([*:1])[*:2]

Columns and labels:
[1] = Plasma protein binding, rapid equilibrium dialysis; type: in vitro ADME, mouse
Sa-ClpP = target: T1, Sa-ClpP (Staphylococcus aureus, UniProt Q2G036); experiment: ADEP displacement fluorescence polarization assay; type: binding, S. aureus; conditions: displacement of FP probe ADEP 2591 from Sa-ClpP
T1 construct: made in house; host or cells: E. coli BL21 (DE3)
Method: A fluorescence polarization (FP) assay was used to determine the activity of the disclosed compounds in displacing an ADEP analogue from ClpP. Briefly, the assay was performed in black 384 well, flat bottom, low volume plates (Greiner Bio-One, Monroe, N.C., catalog #784076). 20 μL of a pre-equilibrated (1 hr, room temperature) master mix (15 μM Sa-ClpP, 2% DMSO (v/v) and 50 nM FP probe in TrisHCl, pH 8.0)) was pipetted into each well using a Well-Mate (Thermo Scientific, Waltham, Mass.). Sa-ClpP was prepared as described above for the ClpP activation assay. The FP probe was ADEP 2591 (structure shown above). The ADEP 2591 comprises a TAMRA fluorophore linked to a core based on modified ADEP 2378 via a short alkyl linker. Using pin transfer, approximately 0.4 μL (2% v/v DMSO) of each compound or control was added per well. After addition of compounds and controls, plates were allowed to incubate for an additional 120 minutes at room temperature. All assays were performed in triplicate. Polarization was monitored using an EnVision Multilabel reader (Perkin-Elmer, Waltham, Mass.) by exciting the FP probe at 530±25 nm, and monitoring fluorescence intensity of both parallel and perpendicular polarized light at 579±25 nm. Readout was in millipolarization units (mP).
Signal gain and G factors were determined in wells containing 200 μM ADEP 2378, which had been previously verified (data not shown) as containing completely unbound ADEP 2591. Data collected was normalized to values obtained from positive (200 μM ADEP 2378) or negative (DMSO) controls. Curves were fit with non-linear regression using the equation “log [inhibitor] vs. Response-variable slope (four parameters)-symmetrical” in the program Prism 6 (GraphPad Software, La Jolla, Calif. USA, www.graphpad.com). The structures for ADEP 2378 and ADEP 2591 are shown above. ADEP 2378 is (E)-N—((S)-1-(((2R,6S,8aS,14aS,20S,23aS)-2,6-dimethyl-5,8,14,19,23-pentaoxooctadecahydro-1H,5H,14H,19H-pyrido[2,1-i]dipyrrolo[2,1-c:2′,1′-1][1]oxa[4,7,10,13]tetraazacyclohexadecin-20-yl)amino)-1-oxo-3-phenylpropan-2-yl)pent-2-enamide. ADEP 2591 is 5-(3-(3-((6S,9S,11aS,17S,20aS)-6,10-dimethyl-5,8,11,16,20-pentaoxo-17-((S)-2-((E)-pent-2-enamido)-3-phenylpropanamido)hexadecahydro-1H,5H,16H-dipyrrolo[2,1-c:2′,1′-1][1]oxa[4,7,10,13]tetraazacyclohexadecin-9-yl)propyl)thioureido)-2-(6-(dimethylamino)-3-(dimethyliminio)-3H-xanthen-9-yl)benzoate.

[2] = plasma binding, % Bound, mouse plasma

T1 sequence (Q2G036 whole entry): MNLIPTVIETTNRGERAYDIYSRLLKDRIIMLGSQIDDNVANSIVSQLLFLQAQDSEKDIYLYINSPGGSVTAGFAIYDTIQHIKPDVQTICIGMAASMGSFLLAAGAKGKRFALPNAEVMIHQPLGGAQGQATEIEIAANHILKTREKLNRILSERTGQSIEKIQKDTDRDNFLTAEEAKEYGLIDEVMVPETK

SMILES | Mouse [1, 2] | IC50 (Sa-ClpP) | Mouse ([1]; mouse, 4 h, 10 μM, pH 7.4)
Cc1cccc(C[C@H](NC(=O)Nc2ccc(Cl)cc2F)C(=O)N[C@@H]2C(=O)N3C[C@H](OP(=O)(O)O)C[C@H]3C(=O)N3CCCC[C@H]3C(=O)N[C@@H](C)C(=O)N3C[C@H](C)C[C@H]3C(=O)O[C@H]2C)c1 [Compound 29, (2R,6S,8AS,14AS,16R,20S,21S,23AS)-20-((S)-2-(3-(4-CHLORO-2-FLUOROPHENYL)UREIDO)-3-(M-TOLYL)PROPANAMIDO)-2,6,21-TRIMETHYL-5,8,14,19,23-PENTAOXOOCTADECAHYDRO-1H,5H,14H,19H-PYRIDO[2,1-I]DIPYRROLO[2,1-C:2′,1′-L][1]OXA[4,7,10,13]TETRAAZACYCLOHEXADECIN-16-YL DIHYDROGEN PHOSPHATE] ({NH(4-Cl-2-F-phenyl)-CO}-[Phe(3-Me)][aThr][X5][Pip]A[Pro(4R-Me)]; ester 2-C) | 96.9 ± 6.9% | 4.45 ± 0.45 µM | 
Cc1cccc(C[C@H](NC(=O)Nc2ccc(Cl)cc2F)C(=O)N[C@H]2COC(=O)[C@@H]3C[C@@H](C)CN3C(=O)[C@H](C)NC(=O)[C@@H]3CCCCN3C(=O)[C@@H]3C[C@@H](O)CN3C2=O)c1 [Compound 10] |  | 4.65 ± 0.2 µM | 99.7 ± 0.0%
Cc1cccc(C[C@H](NC(=O)Nc2ccc(Cl)cc2F)C(=O)N[C@@H]2C(=O)N3C[C@H](O)C[C@H]3C(=O)N3CCCC[C@H]3C(=O)N[C@@H](C)C(=O)N3C[C@H](C)C[C@H]3C(=O)O[C@H]2C)c1 [Compound 6, (S)-2-(3-(4-CHLORO-2-FLUOROPHENYL)UREIDO)-N-((2R,6S,8AS,14AS,16R,20S,21S,23AS)-16-HYDROXY-2,6,21-TRIMETHYL-5,8,14,19,23-PENTAOXOOCTADECAHYDRO-1H,5H,14H,19H-PYRIDO[2,1-I]DIPYRROLO[2,1-C:2′,1′-L][1]OXA[4,7,10,13]TETRAAZACYCLOHEXADECIN-20-YL)-3-(M-TOLYL)PROPANAMIDE] ({NH(4-Cl-2-F-phenyl)-CO}-[Phe(3-Me)][aThr][Hyp][Pip]A[Pro(4R-Me)]; ester 2-C) |  | 3 ± 0.2 µM | 99.5 ± 0.1%
CCc1ccc(NC(=O)N[C@@H](Cc2cccc(C)c2)C(=O)N[C@@H]2C(=O)N3C[C@H](O)C[C@H]3C(=O)N3CCCC[C@H]3C(=O)N[C@@H](C)C(=O)N3C[C@H](C)C[C@H]3C(=O)O[C@H]2C)cc1 [Compound 25, (S)-2-(3-(4-ETHYLPHENYL)UREIDO)-N-((2R,6S,8AS,14AS,16R,20S,21S,23AS)-16-HYDROXY-2,6,21-TRIMETHYL-5,8,14,19,23-PENTAOXOOCTADECAHYDRO-1H,5H,14H,19H-PYRIDO[2,1-I]DIPYRROLO[2,1-C:2′,1′-L][1]OXA[4,7,10,13]TETRAAZACYCLOHEXADECIN-20-YL)-3-(M-TOLYL)PROPANAMIDE] ({NH(4-Et-phenyl)-CO}-[Phe(3-Me)][aThr][Hyp][Pip]A[Pro(4R-Me)]; ester 2-C) |  | 4.76 ± 0.33 µM | 99.5 ± 0.11%
Cc1cccc(C[C@H](NC(=O)Nc2ccc3c(c2)OCCO3)C(=O)N[C@@H]2C(=O)N3CCC[C@H]3C(=O)N3CCCC[C@H]3C(=O)N[C@@H](C)C(=O)N3C[C@H](C)C[C@H]3C(=O)O[C@H]2C)c1 [Compound 21, (S)-2-(3-(2,3-DIHYDROBENZO[B][1,4]DIOXIN-6-YL)UREIDO)-3-(M-TOLYL)-N-((2R,6S,8AS,14AS,20S,21S,23AS)-2,6,21-TRIMETHYL-5,8,14,19,23-PENTAOXOOCTADECAHYDRO-1H,5H,14H,19H-PYRIDO[2,1-I]DIPYRROLO[2,1-C:2′,1′-L][1]OXA[4,7,10,13]TETRAAZACYCLOHEXADECIN-20-YL)PROPANAMIDE] ({X3-CO}-[Phe(3-Me)][aThr]P[Pip]A[Pro(4R-Me)]; ester 2-C) |  | 3.74 ± 0.24 µM | 99.2 ± 0.1%
Cc1cc(C)cc(C[C@H](NC(=O)Nc2ccc(Cl)cc2F)C(=O)N[C@@H]2C(=O)N3CCC[C@H]3C(=O)N3CCCC[C@H]3C(=O)N[C@@H](C)C(=O)N3C[C@H](C)C[C@H]3C(=O)O[C@H]2C)c1 [Compound 4, (S)-2-(3-(4-CHLORO-2-FLUOROPHENYL)UREIDO)-3-(3,5-DIMETHYLPHENYL)-N-((2R,6S,8AS,14AS,20S,21S,23AS)-2,6,21-TRIMETHYL-5,8,14,19,23-PENTAOXOOCTADECAHYDRO-1H,5H,14H,19H-PYRIDO[2,1-I]DIPYRROLO[2,1-C:2′,1′-L][1]OXA[4,7,10,13]TETRAAZACYCLOHEXADECIN-20-YL)PROPANAMIDE] ({NH(4-Cl-2-F-phenyl)-CO}-[Phe(3,5-Me2)][aThr]P[Pip]A[Pro(4R-Me)]; ester 2-C) |  | 6.45 ± 0.4 µM | 99.8 ± 0.0%
Cc1ccc(NC(=O)N[C@@H](Cc2cccc(C)c2)C(=O)N[C@@H]2C(=O)N3C[C@H](O)C[C@H]3C(=O)N3CCN(C)C[C@H]3C(=O)N[C@@H](C)C(=O)N3C[C@H](C)C[C@H]3C(=O)O[C@H]2C)cc1 [Compound 30, (S)—N-((6AS,8R,12S,13S,15AS,17R,21S,23AS)-8-HYDROXY-2,13,17,21-TETRAMETHYL-6,11,15,20,23-PENTAOXOOCTADECAHYDRO-2H,6H,11H,15H-PYRAZINO[2,1-I]DIPYRROLO[2,1-C:2′,1′-L][1]OXA[4,7,10,13]TETRAAZACYCLOHEXADECIN-12-YL)-3-(M-TOLYL)-2-(3-(P-TOLYL)UREIDO)PROPANAMIDE] ({NH(4-Me-phenyl)-CO}-[Phe(3-Me)][aThr][Hyp][Piperazine(2S-CO,4-Me)]A[Pro(4R-Me)]; ester 2-C) | 92.4 ± 2.4% | 3.41 ± 0.41 µM | 
CCc1ccc(NC(=O)N[C@@H](Cc2cccc(C)c2)C(=O)N[C@H]2COC(=O)[C@@H]3C[C@@H](C)CN3C(=O)[C@H](C)NC(=O)[C@@H]3CN(C)CCN3C(=O)[C@@H]3CCCN3C2=O)cc1 [Compound 16, (S)-2-(3-(4-ETHYLPHENYL)UREIDO)-3-(M-TOLYL)-N-((6AS,12S,15AS,17R,21S,23AS)-2,17,21-TRIMETHYL-6,11,15,20,23-PENTAOXOOCTADECAHYDRO-2H,6H,11H,15H-PYRAZINO[2,1-I]DIPYRROLO[2,1-C:2′,1′-L][1]OXA[4,7,10,13]TETRAAZACYCLOHEXADECIN-12-YL)PROPANAMIDE] ({NH(4-Et-phenyl)-CO}-[Phe(3-Me)]SP[Piperazine(2S-CO,4-Me)]A[Pro(4R-Me)]; ester 2-C) |  | 5.46 ± 0.2 µM | 97.1 ± 0.1%
Cc1ccc(NC(=O)N[C@@H](Cc2cccc(C)c2)C(=O)N[C@@H]2C(=O)N3C[C@H](O)C[C@H]3C(=O)N3CCCC[C@H]3C(=O)N[C@@H](C)C(=O)N3C[C@H](C)C[C@H]3C(=O)O[C@H]2C)cc1 [Compound 26, (S)—N-((2R,6S,8AS,14AS,16R,20S,21S,23AS)-16-HYDROXY-2,6,21-TRIMETHYL-5,8,14,19,23-PENTAOXOOCTADECAHYDRO-1H,5H,14H,19H-PYRIDO[2,1-I]DIPYRROLO[2,1-C:2′,1′-L][1]OXA[4,7,10,13]TETRAAZACYCLOHEXADECIN-20-YL)-3-(M-TOLYL)-2-(3-(P-TOLYL)UREIDO)PROPANAMIDE] ({NH(4-Me-phenyl)-CO}-[Phe(3-Me)][aThr][Hyp][Pip]A[Pro(4R-Me)]; ester 2-C) | 99.1 ± 0.15% | 4.26 ± 0.16 µM | 
